Data on eleven molecules can be found in publication PMC11434080, “Acetylation of Oleanolic Acid Dimers as a Method of Synthesis of Powerful Cytotoxic Agents” (Molecules, 2024).

SMILES strings stand for the structures. “Also recorded” adds a separate entry of the source.

Details of series [1]: method as in PMID 39000101, PMID 39125028. The note with it: previously analyzed derivatives; cited from earlier work.
A further series in a line: DPPH antioxidant assay. To be noted: for DPPH activity (in words): Figure 3. From the text:
(§1) The results of the antioxidant activity of oleanolic acid (1) and Acetylated Oleanolic Acid Dimers (AcOADs) 3a–3n evaluated with CUPRAC and DPPH assays are given in Figure 3. The results are presented as % inhibition of the copper(II) ions and Trolox equivalent (blue bars) calculated from the standard curve, presented in the Supplementary Materials (Supplementary Materials S02, Figure S1) and as % inhibition of the DPPH radical and Trolox equivalent (pink bars), calculated from the standard curve presented in the Supplementary Materials (Supplementary Materials S02, Figure S2).
(§2) The CUPRAC reagent (7.5 mM ethanolic 96% neocuproine solution, 10 mM CuCl2 × H2O solution, and an ammonium acetate buffer of pH 7.0) and DPPH reagent (2,2-diphenyl-1-picrylhydrazyl 0.2 mM solution) were applied.
(§3) The DPPH assay relies on the ability of an antioxidant to donate a hydrogen atom or an electron to the stable DPPH radical, resulting in its reduction and subsequent color change. In contrast, the CUPRAC method measures the reducing power of a sample by quantifying its ability to convert the Cu-neocuproine reagent complex into the Cu(I) form. The results are presented as % inhibition of the copper(II) ions and Trolox equivalent (blue bars) calculated from the standard curve (Supplementary Materails S02, Figure S1) and as % inhibition of the DPPH radical and Trolox equivalent (pink bars), calculated from the standard curve (Supplementary Materials S02, Figure S2). The details of the experiments are given in [46].
On the technique in general: Loss of DPPH colour is used to gauge radical scavenging.

A further series in a line: CUPRAC antioxidant assay. To be noted: for CUPRAC activity (in words): Figure 3.
Source text: as §1, §2, §3

Another series concerns PC-3. Kind of series: MTT assay, PC-3. It counts as cell-based, human. To be noted: for IC50: MTT assay, PC-3 human prostate carcinoma, value (SD), read-out: B IC50 (SD); for B SI: Selectivity Index = IC50 HDF / IC50 of PC-3. Here is the method: (§4) The cytotoxic activity of oleanolic acid (mother compound, 1, Figure 2) and its 14 derivatives (3a–3n, Figure 2) was tested in vitro using the standard MTT method based on viability assay, e.g., [44] against carcinoma cell lines: SKBR-3, SKOV-3, PC-3, U-87, and one normal cell line: HDF.
(§5) Human cancer cells: SKBR-3 and SKOV-3 were cultured in McCoy’s Modified Medium; PC-3 was cultured in an F-12K medium; U-87 was cultured in EMEM medium; HDF was cultured in Fibroblast Basal Medium. Each medium was supplemented with 10% fetal bovine serum, 1% L- glutamine, and 1% penicillin/streptomycin solution. The cell lines were kept in an incubator at 37 °C. All the cell lines and mediums were obtained from the American Type Culture Collection (ATCC) supplied by LGC-Standards (Lomianki, Poland).
(§6) The MTT assay was conducted as described earlier, e.g., [44]. In short, this method is based on the reaction between mitochondria enzymes (dehydrogenases) of tested cell lines and 3-(4,5-dimethylthiazol-2-yl)-2,5-diphenyltetrazolium bromide (MTT). The final product of this reaction gives violet formazan crystals. The number of live cells is proportional to the amount of formazan and is represented by the violet dye reagent. The details of the experiments are given in [44].

In the next series the test system is U-87. Kind of series: MTT assay, U-87. It counts as cell-based, human. To be noted: for U-87 SI: Selectivity Index = IC50 HDF / IC50 U-87; for IC50: U-87 MG, MTT assay, U-87 human glioblastoma, value (SD). Here is the method: as §4, §5, §6
On the technique in general: Formazan colour is commonly taken as a measure of viable cells.

Another series has as its system HDF. Nature of the series: MTT assay, HDF normal cell line. It counts as cell-based. The note with it: Homo sapiens, value (SD). Here is the method: as §4, §5, §6
Another series deals with SKBR-3. Kind of series: MTT assay, SKBR-3. It counts as cell-based, human. To be noted: for SKBR-3 SI: Selectivity Index = IC50 HDF / IC50 SKBR-3; for IC50: SK-BR-3, MTT assay, SKBR-3 human breast adenocarcinoma, value (SD). Here is the method: as §4, §5, §6
A further series concerns SKOV-3. Nature of the series: MTT assay, SKOV-3. To be noted: for SKOV-3 SI: Selectivity Index = IC50 HDF / IC50 SKOV-3; for IC50: SK-OV-3, MTT assay, SKOV-3 human ovarian cystadenocarcinoma, value (SD). It is filed as cell-based, human. The protocol:
as §4, §5, §6

On the set-up of series [2]: method as in PMID 39000101, PMID 39125028. The note with it: previously analyzed derivatives; cited from earlier work. This is another data set of the same source.
Series [3] has as its system SKBR-3, SKOV-3, PC-3, and U-87 cancer cell lines. Kind of series: MTT assay, four cancer cell lines taken together. It is filed as cell-based, human. To be noted: MTT, across SKBR-3, SKOV-3, PC-3, U-87. The protocol: as §4, §5, §6
The nature of series [4]: Solubility in ethanol observed at crystallization. The note with it: room temperature. It is filed as physicochemical.

`CC1(C)CCC2(C(=O)OCCCCCCCOC(=O)C34CCC(C)(C)CC3C3=CCC5C6(C)CCC(O)C(C)(C)C6CCC5(C)C3(C)CC4)CCC3(C)C(=CCC4C5(C)CCC(O)C(C)(C)C5CCC43C)C2C1` (stereo not drawn) [Compound 2i]: in series [1], the “CUPRAC activity (in words), previous analysis” value is on record as “high CUPRAC values”.

Turning to `CC1(C)CCC2(C(=O)OCCCCCCCCOC(=O)C34CCC(C)(C)CC3C3=CCC5C6(C)CCC(O)C(C)(C)C6CCC5(C)C3(C)CC4)CCC3(C)C(=CCC4C5(C)CCC(O)C(C)(C)C5CCC43C)C2C1` (stereo not drawn) [Compound 2j], in series [1], the “CUPRAC activity (in words), previous analysis” value is “high CUPRAC values”.

Turning to `CC1(C)CC[C@]2(C(=O)O)CC[C@]3(C)C(=CC[C@@H]4[C@@]5(C)CC[C@H](O)C(C)(C)[C@@H]5CC[C@]43C)[C@@H]2C1` [Compound 1, oleanolic acid], in the series “DPPH antioxidant assay”, the DPPH antioxidant activity is recorded as 0.01907 ± 0.0006506 Trolox equivalents. The CUPRAC antioxidant activity in the series “CUPRAC antioxidant assay” was determined as 0.05474 ± 0.00171 Trolox equivalents. Also, the IC50 was 18.6 µM with PC-3, 18.2 µM in the series on U-87 and 24.9 µM in the series with HDF. In addition, in the series with PC-3, the “B SI” value was 1.33. Also, the “U-87 SI” value with U-87 is given as 1.37. Besides, the “SKBR-3 SI” value in the series on SKBR-3 stood at 1.27. Also, the “SKOV-3 SI” value with SKOV-3 is given as 1.32.

For the molecule `CC1(C)CCC2(C(=O)OCOC(=O)C34CCC(C)(C)CC3C3=CCC5C6(C)CCC(O)C(C)(C)C6CCC5(C)C3(C)CC4)CCC3(C)C(=CCC4C5(C)CCC(O)C(C)(C)C5CCC43C)C2C1` (stereo not drawn) [Compound 2a], the “DPPH activity (in words), previous analysis” value in [2] is reported as “high DPPH activity”. In addition, the “CUPRAC activity (in words), previous analysis” value in [1] was “lower CUPRAC activity”.

On to `CC(=O)OC1CCC2(C)C(CCC3(C)C2CC=C2C4CC(C)(C)CCC4(C(=O)OCC=CCOC(=O)C45CCC(C)(C)CC4C4=CCC6C7(C)CCC(OC(C)=O)C(C)(C)C7CCC6(C)C4(C)CC5)CCC23C)C1(C)C` (stereo not drawn) [Compound 3e], for which the “CUPRAC activity (in words)” value in the series “CUPRAC antioxidant assay” is listed as “highest CUPRAC activity”. For the same molecule, the IC50 with PC-3 is 3.35 µM; in the series on U-87, 3.48 µM; in the series on HDF it was 6.66 µM; in the series on SKBR-3, 3.07 µM; with SKOV-3, 2.95 µM; in series [3] (Homo sapiens), 2.5 to 4.5 µM. In addition, the “B SI” value in the series with PC-3 is recorded as 1.99. For the same molecule, in the series with U-87, the “U-87 SI” value came to 1.91. In addition, the “SKBR-3 SI” value in the series on SKBR-3 amounted to 2.17. Also, in the series with SKOV-3, the “SKOV-3 SI” value amounted to 2.26.

On to `CC(=O)OC1CCC2(C)C(CCC3(C)C2CC=C2C4CC(C)(C)CCC4(C(=O)OCCOC(=O)C45CCC(C)(C)CC4C4=CCC6C7(C)CCC(OC(C)=O)C(C)(C)C7CCC6(C)C4(C)CC5)CCC23C)C1(C)C` (stereo not drawn) [Compound 3b], for which the “DPPH activity (in words)” value in the series “DPPH antioxidant assay” was “low DPPH activity”. Further, the “CUPRAC activity (in words)” value in the series “CUPRAC antioxidant assay” is given as “highest CUPRAC activity; also recorded: high CUPRAC activity”. Besides, the IC50 is 3.12 µM in the series with PC-3; 3.1 µM in the series with U-87; 7.05 µM in the series on HDF; 2.97 µM in the series with SKBR-3; 3.04 µM with SKOV-3; 2.5 to 4.5 µM in series [3] (Homo sapiens). Also, the “B SI” value with PC-3 is reported as 2.26. Further, the “U-87 SI” value in the series with U-87 is on record as 2.27. For the same molecule, the “SKBR-3 SI” value in the series on SKBR-3 stood at 2.37. For the same molecule, the “SKOV-3 SI” value in the series on SKOV-3 is given as 2.32.

On to `CC1(C)CCC2(C(=O)OCCCCCOC(=O)C34CCC(C)(C)CC3C3=CCC5C6(C)CCC(O)C(C)(C)C6CCC5(C)C3(C)CC4)CCC3(C)C(=CCC4C5(C)CCC(O)C(C)(C)C5CCC43C)C2C1` (stereo not drawn) [Compound 2g], for which, in [1], the “CUPRAC activity (in words), previous analysis” value is recorded as “high CUPRAC values”.

With `CC1(C)CCC2(C(=O)OCCCCCCCCCCCOC(=O)C34CCC(C)(C)CC3C3=CCC5C6(C)CCC(O)C(C)(C)C6CCC5(C)C3(C)CC4)CCC3(C)C(=CCC4C5(C)CCC(O)C(C)(C)C5CCC43C)C2C1` (stereo not drawn) [Compound 2m], in [1], the “CUPRAC activity (in words), previous analysis” value is reported as “high CUPRAC values”.

Turning to `CC(=O)OC1CCC2(C)C(CCC3(C)C2CC=C2C4CC(C)(C)CCC4(C(=O)OCCCCCCCCCCCOC(=O)C45CCC(C)(C)CC4C4=CCC6C7(C)CCC(OC(C)=O)C(C)(C)C7CCC6(C)C4(C)CC5)CCC23C)C1(C)C` (stereo not drawn) [Compound 3m], the “CUPRAC activity (in words)” value in the series “CUPRAC antioxidant assay” is given as “highest CUPRAC activity”. Further, the IC50 is 1.76 µM with PC-3; 1.83 µM with U-87; 4.62 µM in the series with HDF; 1.78 µM in the series with SKBR-3; 2.31 µM with SKOV-3; approximately 2 µM in series [3] (Homo sapiens). This molecule also returned an IC50 in series [3] not above 2 µM. Moreover, the “B SI” value in the series with PC-3 amounted to 2.62. Moreover, the “U-87 SI” value with U-87 was 2.52. Also, the solubility in ethanol result in series [4] is “well soluble”. The “SKBR-3 SI” value in the series with SKBR-3 was found to be 2.59. Further, in the series on SKOV-3, the “SKOV-3 SI” value is on record as 2.00.

Turning to `CC(=O)OC1CCC2(C)C(CCC3(C)C2CC=C2C4CC(C)(C)CCC4(C(=O)OCOC(=O)C45CCC(C)(C)CC4C4=CCC6C7(C)CCC(OC(C)=O)C(C)(C)C7CCC6(C)C4(C)CC5)CCC23C)C1(C)C` (stereo not drawn) [Compound 3a], the melting point lay within 286 to 288 °C. Further, the “DPPH activity (in words)” value in the series “DPPH antioxidant assay” is “higher antioxidant activity than OA; also recorded: high DPPH activity”. Further, the “CUPRAC activity (in words)” value in the series “CUPRAC antioxidant assay” was “moderate CUPRAC activity”. The IC50 in the series on PC-3 was found to be 2.26 µM. In addition, in the series on U-87, half-maximal inhibition (IC50) was put at 2.03 µM. The molecule also gave a half-maximal inhibitory concentration (IC50) in the series with HDF of 6.63 µM. This molecule displayed an IC50 in the series with SKBR-3 of 2.04 µM. Besides, the IC50 in series [3] (Homo sapiens) is approximately 2 µM.

`CC(=O)OC1CCC2(C)C(CCC3(C)C2CC=C2C4CC(C)(C)CCC4(C(=O)OCCCCCCCCCCCCOC(=O)C45CCC(C)(C)CC4C4=CCC6C7(C)CCC(OC(C)=O)C(C)(C)C7CCC6(C)C4(C)CC5)CCC23C)C1(C)C` (stereo not drawn) [Compound 3n]: the IC50 with PC-3 came to 9.49 µM; with U-87 it was 10.2 µM; in the series on HDF it was 14.7 µM; with SKBR-3, 9.69 µM; in the series on SKOV-3, 10.2 µM. Moreover, the “B SI” value in the series with PC-3 stood at 1.55. In addition, in the series with U-87, the “U-87 SI” value was found to be 1.45. Moreover, in series [4], the solubility in ethanol entry is listed as “well soluble”. Besides, the “SKBR-3 SI” value in the series on SKBR-3 turned out to be 1.52. Also, the “SKOV-3 SI” value with SKOV-3 was found to be 1.43.

By IC50 is commonly meant the point on the concentration scale where inhibition reaches its midpoint. Broadly, the melting point is the temperature of the solid-liquid transition.
